Active and inactive are the calls of the source.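 Rule for the calls: active = compounds displacing the labeled ligand from RAR alpha with half-maximal potency at 10 µM or stronger; inactive = the rest.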
Biological target: Retinoic acid receptor alpha (Homo sapiens) (UniProt P10276)
Test: ligand displacement at retinoic acid receptor alpha – biochemical, [3H]9-cis-retinoic acid, RARalpha, dose response (AID 1159612)
Settings: RARalpha radioligand binding, [3H]9-cis-RA displacement

Sequence of Retinoic acid receptor alpha (Homo sapiens) (P10276 whole entry, looked up): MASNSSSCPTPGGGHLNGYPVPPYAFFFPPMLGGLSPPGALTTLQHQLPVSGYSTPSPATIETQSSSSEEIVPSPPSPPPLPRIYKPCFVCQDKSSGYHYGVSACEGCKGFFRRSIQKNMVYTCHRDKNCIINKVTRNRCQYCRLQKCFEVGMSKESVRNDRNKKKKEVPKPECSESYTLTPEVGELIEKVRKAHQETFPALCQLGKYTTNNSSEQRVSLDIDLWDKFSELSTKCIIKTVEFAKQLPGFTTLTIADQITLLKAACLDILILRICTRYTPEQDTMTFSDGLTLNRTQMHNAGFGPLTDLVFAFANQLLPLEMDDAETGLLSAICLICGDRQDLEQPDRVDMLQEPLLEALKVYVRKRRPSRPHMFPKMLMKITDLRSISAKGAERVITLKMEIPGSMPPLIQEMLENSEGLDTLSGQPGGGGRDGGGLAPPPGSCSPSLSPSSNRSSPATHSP

IC50: inactive
Compound: CC1=C[C@H](O)CC(C)(C)[C@H]1/C=C/C(C)=C/C=C/C(C)=C/C=C/C=C(C)/C=C/C=C(C)/C=C/C1=C(C)C[C@@H](O)CC1(C)C
